Data: a melting point compilation (Tetko et al.; mined from patent text by program, amines drawn as free bases though some values may be those of a salt)
Non-standard residues stand in square brackets, D forms with d. Residues, ends and D or L forms follow the SMILES beside them. *: point of attachment. Npys = O=[N+]([O-])c1cccnc1S*; Mpa = O=C(O)CCS

Row | melting point [°C] | SMILES
1 | 114 to 115 | CC(CSC(=S)c1ccc(F)cc1)C(=O)N1CCCC1C(=O)O (configuration not stated)
2 | 91 to 94 | OCCC1(c2ccc(Cl)c(Cl)c2)CCNC1 (configuration not stated)
3 | 180 to 181 | NC(=O)CC(=O)c1ccc(-c2ccc(Cl)cc2)o1
4 | 182 to 183 | O=C(O)CCc1cc(OCCCc2cn(-c3ccc(C(F)(F)F)cn3)nc2C2CCCCC2)nn1-c1ccccc1
5 | 120 to 130 | O=[N+]([O-])c1cc(F)cc2c(Cl)ccnc12
6 | 122 to 124 | CCOCc1cc2ccc(OCc3ccccc3)cc2oc1=O
7 | 88 to 90 | N#Cc1ccc(Cl)cc1NC(CCO)c1ccccc1 (configuration not stated)
8 | 68 to 70 | COc1cccc(Nc2ccnc(Nc3cc(OC)c(OC)c(SC)c3)n2)c1
9 | 67.3 to 68.1 | CN1CCCCC1COC(=O)Nc1cccc(Br)c1 (configuration not stated)
10 | 101 to 103 | CCOC(=O)c1cc2nc(C)oc2nc1C(=O)OCC
11 | 206 to 207 | Clc1ccc(-c2nc(I)c[nH]2)cc1Cl
12 | 185 to 187 | CN(C)C(=S)SCn1c(Br)c(Br)c(S(=O)(=O)C(F)(F)F)c1-c1ccc(Cl)cc1
13 | 86 to 88 | CCOC(=O)C(C)Oc1ccc(Sc2nnc3cc(Cl)ccc3n2)cc1 (configuration not stated)
14 | 98 to 99 | CC(C)(C)OC(=O)N1CC(O)C(NS(=O)(=O)c2ccc(Oc3ccccc3)cc2)C1 (configuration not stated)
15 | 71 to 72 | COc1cc(Cl)c(CO)c(Cl)c1
16 | 191 to 193 | CC1(Oc2ccc(CC(=O)c3ccc4c(c3)CCC4)cc2)CCCC1C(=O)O (configuration not stated)
17 | 68 to 71 | CCCCCCCSc1nn2c(=O)c(OC)cnc2s1
18 | 121 to 122 | CS(=O)(=O)N(Cc1ccc(Cl)cc1)CC(O)(Cn1cncn1)c1ccc(Cl)cc1Cl (configuration not stated)
19 | 252 to 255 | CCCn1nc2c(N)nc3ncccc3c2c1CC1CCOCC1
20 | 166 to 169 | Cc1sc2cc(CCO)ccc2c1C(=O)O
21 | 219 to 221 | COc1ccc(-c2cc(N(Cc3ccc(OCc4ccccc4)cc3)n3cnnc3)ccc2C#N)cc1
22 | 236 to 238 | CSc1nc(C)n(CC(=O)O)c(=O)c1C#N
23 | 211 to 215 | COC(=O)C(C(=O)OC)c1ccc2c(c1)C(=O)c1cc3ccccc3cc1C2=O

Row | melting point [°C] | SMILES
24 | 192 to 193 | COc1ccc2c3c([nH]c2c1)CC(NC(C)=O)CC3 (configuration not stated)
25 | 158 to 160 | NC(=O)n1cc(-c2ccc(Oc3ccc(N)cc3)cc2)cn1
26 | 189 to 190 | CC(C)c1cccc(N2CCN(c3cccc(C(=O)O)c3)C2=O)c1
27 | 147 to 149 | CNC(=O)N1CC(C)(C)NC(C)(C)CC1=O
28 | 184 to 186 | O=C(Nc1cc(OCCCO/N=C/c2cc(C(F)(F)F)cc(C(F)(F)F)c2)ccc1C(=O)O)c1ccc(OC(F)(F)F)cc1
29 | 141 to 143 | c1ccc(C2=Nc3ccccc3N3CCc4cccc2c43)cc1
30 | 71 to 73 | CC(=O)C[C@@H](Cc1ccccc1)C(=O)O
31 | 105 to 108 | CN(C)CCN(C(N)=O)c1cnccn1
32 | 65 to 68 | CCCCCCCCCCCCCCOc1ccc(N)cc1
33 | 88 to 90 | Cc1cc(C)cc(OCC(O)CCN2CCN(c3ccccc3)CC2)c1 (configuration not stated)
34 | 197 to 200 | CCCn1nc(C(C)C)c(C(N)=O)c1Cc1ccc(-c2ccccc2S(=O)(=O)NC(=O)c2ccccc2)cc1
35 | 169 to 170 | Cc1ccc([N+](=O)[O-])cc1S(=O)(=O)n1nnc2ccccc21
36 | 159 to 161 | COc1ccc(C(=O)CC(C#N)c2ccc3c(c2)OCO3)cc1OC (configuration not stated)
37 | 77 to 79 | CC(C)(C)CNc1cc(Cl)nc(Cl)n1
38 | 109 to 111 | CCCCc1nc(Cl)c(COCc2ccccc2C(=O)O)n1Cc1ccc(-c2ccccc2-c2nnn[nH]2)cc1
39 | 74 to 76 | Cc1cc(C)cc(OCC(O)CCCl)c1 (configuration not stated)
40 | 155 | CC1=C(OC(=O)C(C)(C)C)C2=C(O)N(I)CN(OC(=O)C(C)(C)C)C2=N1
41 | 158 to 160 | CC(=O)OCC(=O)C1CCC2C3CCC4CC(O)C(N5CCOC(C)(C)C5)CC4(C)C3C(=O)CC12C (configuration not stated)
42 | 101 to 105 | CC(C)C[C@@H](C=O)NC(=O)[C@H](Cc1c[nH]cn1)NC(=O)[C@H](Cc1ccccc1)NC(=O)CCSSc1ncccc1[N+](=O)[O-] ([Mpa](Npys)FHL-aldehyde)
43 | > 260 | O=C(NN=Cc1ccc(Cl)cc1)c1[nH]c2ccccc2c1C(=O)Nc1ccccc1
44 | 172 to 175 | Fc1cc(F)cc(-c2cccc3[nH]c4c(c23)CCN(Cc2ccccc2)CC4)c1
45 | 188 | CC(O)C(=O)NCCNC(=O)C(C)O (configuration not stated)
46 | 145 | CCc1nc(C(C)(C)O)c(C(=O)OCc2oc(=O)oc2C)n1Cc1ccc(-c2ccccc2-c2nnnn2C(c2ccccc2)(c2ccccc2)c2ccccc2)cc1

Row | melting point [°C] | SMILES
47 | 180 to 182 | O=C(Oc1cc(CBr)ccc1F)c1ccccc1
48 | 93 to 95 | Cc1cn(C2CC(O[Si](C)(C)C(C)(C)C)C(CO)O2)c(=O)[nH]c1=O (configuration not stated)
49 | 285 | COc1ccc(NC(=O)c2ccc(OC)c3oc4ccc(NC(C)=O)cc4c23)cc1
50 | 182 to 184 | O=C(Nc1c[nH]nc1C(=O)NCCCOc1ccccc1)c1ccccn1
51 | 88 | CN(C)CCSc1cc(NC(=O)OC(C)(C)C)c(NC(=O)CC(=O)c2cccc(C#N)c2)cc1C#Cc1ccccc1
52 | 196 to 198 | Cc1nn(-c2cc3nc(S(=O)(=O)Cc4ccccc4Cl)sc3cc2Cl)c(=O)n1C(F)F
53 | 278 to 280 | Cc1sc2nc3cccc(C)c3c(=O)n2c1C
54 | 134 to 136 | CCCCOc1cc(CCS(N)(=O)=O)n(Cc2ccc(Cl)cc2Cl)n1
55 | 101 to 102 | CCCCCCc1cn(CC2OC(n3cnc4c(NCc5ccc(OC)cc5)ncnc43)C(O)C2O)nn1 (configuration not stated)
56 | 73 to 75 | COc1ccc(C(Cc2ccc(C(N)=O)cc2)c2ccccc2)cc1OC1CCCC1 (configuration not stated)
57 | 148 to 150 | Cc1nc(CNC(=O)c2sc(-n3cnn(Cc4ccc(F)cc4)c3=O)cc2C)cs1
58 | 212 to 214 | O=C1c2ccccc2C(=O)N1CCCn1c2ccccc2c2nc3ccccc3nc21
59 | 151 | Fc1ccc(Cn2c(NC3CCN(CCOc4nc5cccnc5s4)CC3)nc3ccccc32)cc1
60 | 254 to 256 | CC(=O)NC[C@H]1CN(c2ccc(C(=O)c3cnc4cc(C)ccn34)cc2)C(=O)O1
61 | 73 to 75.5 | CCCOCCn1c(CN2CCN(C)CC2)nc2ccccc21
62 | 101 to 102 | Cc1cccc(C)c1Sc1cc(C(C)(C)C)cc(C(C)(C)C)c1O
63 | 130 to 132 | Nc1cccc(S(=O)(=O)NC2(CO)CCCC2)c1
64 | 57 to 58 | CCN(CC)c1cc2cnnn2c(C)n1
65 | 238 to 240 | N#Cc1cc(C(=O)NN2CCOCC2)ccc1O
66 | 81 to 82 | CCN(CC)C(=O)Nc1cccc(Cl)c1
67 | 192 to 194 | CCOC(=O)CN1CCN(c2cc3c(cc2F)c(=O)c(C(=O)O)cn3C2CC2)CC1
68 | 256 to 258 | O=C(Nc1ccc(-c2cnc(-c3ccc(NC(=O)C4CCCCCC4)cc3)[nH]2)cc1)c1cccnc1
69 | 63 to 65 | COC(=O)c1cc(-c2cc(C)[nH]c2C)nn1C

Row | melting point [°C] | SMILES
70 | 139 to 142 | OCC1=Cc2cc3ccccc3n2CC1
71 | 159 to 162 | Cc1ccc(-c2cc(-c3ccccc3)cc3c2OC(CN)C3)cc1 (configuration not stated)
72 | 212 to 213 | COc1cc2c3cc(OC)c(OC)cc3n(S(=O)(=O)c3ccccc3)c2cc1OC
73 | 112 to 120 | Cn1c(C(F)(F)F)cc(=O)n(-c2cc(OCc3ccc(Cl)cc3Cl)c(Cl)cc2F)c1=O
74 | 226 to 228 | O=C1Nc2cc(F)c(F)cc2N2CCN(C(=O)OCc3ccccc3)CC12 (configuration not stated)
75 | 129 to 130 | Fc1ccc2c(c1)CC(CN1CCC(c3noc4cc(F)ccc34)CC1)O2 (racemic)
76 | 240 | CCOC(=O)CCc1cc(S(C)(=O)=O)cc(-c2nc(=O)c3ccc(Cl)cc3s2)n1
77 | 79 to 80 | CCCCCCCCCCCCCCCCCCNC(=O)OC[C@H]1CC[C@@H](CO)O1 (relative stereo)
78 | 130 to 140 | COc1cc(C(=O)N2CCC(CCN3CCC(C(=O)c4nc5ccccc5[nH]4)CC3)(c3ccc(Cl)c(Cl)c3)C2)cc(OC)c1OC (configuration not stated)
79 | 164 to 165 | Cc1ccc(-c2nn(CCCO)c(N)c2C(N)=O)cc1
80 | 254 to 256 | N#Cc1cnn2c1NCC=C2c1ccc(Cl)c(Cl)c1
81 | 102 to 105 | O=C1C(CCO)Oc2cc([N+](=O)[O-])ccc2N1Cc1ccccc1 (configuration not stated)
82 | 131 to 133 | COc1cccc(CN2CCN(CC(=O)N3CC=C(c4cccc(C(F)(F)F)c4)n4cnc(C#N)c43)CC2)c1
83 | 165 to 168 | CCc1ccc2c(c1)C(=O)N(CCCCN1CCC(n3c(=O)oc4ccccc43)CC1)S2(=O)=O
84 | 82.5 to 84.5 | O=[N+]([O-])c1ccc(CCCNCCO)cc1
85 | > 300 | O=C(Cn1c(=O)c(=O)[nH]c2cc([N+](=O)[O-])c(-n3cccc3)cc21)Nc1ccccc1
86 | 58 | CCOC(=O)C1(Br)Oc2ccc(OC(C)=O)cc2OC1Br (configuration not stated)
87 | 193 to 195 | Cc1cc(C)cc(C(=O)NC(C(N)=O)n2cccn2)c1 (configuration not stated)
88 | 253 to 256 | Nc1ncccc1-c1nc2ccc(-c3cccnc3)nc2n1-c1ccc(CNC(=O)c2ccccc2)cc1
89 | 152 to 153 | CC1CCN2C(=N1)C(=O)c1cc(S(=O)(=O)N3CCCC3)ccc12 (configuration not stated)
90 | 288 to 291 | O=C(O)COc1ccc(OC2CCN(c3ccncc3)CC2)cc1
91 | 223 to 225 | Cc1nc2c(O[C@@H]3c4ccccc4C[C@H]3O)cc(Cl)cn2c1N (relative stereo)

Row | SMILES | melting point [°C]
92 | CCC(C)NC(=O)OC1c2ccccc2C(=O)N1c1ccc2ccc(Cl)nc2n1 (configuration not stated) | 220 to 222
93 | NC(=O)OC[C@H]1NC(=O)[C@H]1NC(=O)OCc1ccccc1 | 192 to 193
94 | Cc1cccc(NC(=O)NC2N=C(c3ccccc3F)c3ccccc3N(CCOC(=O)N3CC4CCC(CC4)C3)C2=O)c1 (racemic) | 169 to 171
95 | O=C1NCCCCC1Br (configuration not stated) | 109 to 111
96 | CCOC(=O)C(=C(NC)NCc1ccc(Cl)nc1)[N+](=O)[O-] | 231 to 233
97 | Clc1ccc2c(c1)C(c1ccccc1)=NCc1nnc(-c3ccccc3)n1-2 | 194
